According to EPA's ToxRefDB 2:

Columns and labels:
[1] = system: mouse; details: Subchronic oral toxicity in rodents, b6c3f1, Gavage/Intubation, dose end: 14 week, group: systemic
[2] = system: mouse; details: Combined chronic toxicity/carcinogenicity, b6c3f1, Oral, Gavage/Intubation, dose end: 104 week, group: systemic
[3] = system: rabbit; details: Prenatal developmental toxicity study, new zealand white, Oral, Gavage/Intubation, dose end: 29 GD
[4] = system: rat; details: Prenatal developmental toxicity study, sprague dawley, Oral, Gavage/Intubation, dose end: 19 GD
[5] = system: rat; details: Subchronic oral toxicity in rodents, fischer, Gavage/Intubation, dose end: 14 week, group: systemic
[6] = system: rat; details: Combined chronic toxicity/carcinogenicity, fischer, Oral, Gavage/Intubation, dose end: 104 week, group: systemic
[7] = system: mouse; details: Multigenerational reproductive toxicity study, cd1, Oral, Water, dose end: 2 generation
[8] = system: mouse; details: Subchronic oral toxicity in rodents, b6c3f1, Gavage/Intubation, dose end: 13 week, group: systemic
[9] = system: rat; details: Chronic toxicity, sprague dawley, Oral, Gavage/Intubation, dose end: 24 month, group: systemic
[10] = system: dog; details: Chronic toxicity, beagle, Oral, Capsule, dose end: 52 week, group: systemic
[11] = system: rat; details: Subchronic oral toxicity in rodents, fischer, Gavage/Intubation, dose end: 13 week, group: systemic
[12] = system: mouse; details: Carcinogenicity; cd1; Oral; Gavage/Intubation; dose end: 78 week; group: systemic; systemic / in life observation / body weight / body weight + systemic / in life observation / body weight / body weight gain
[13] = system: rabbit; details: Prenatal developmental toxicity study, other, Oral, Gavage/Intubation, dose end: 19 GD
[14] = system: rat; details: Subchronic oral toxicity in rodents, sprague dawley, Feed, dose end: 90 day, group: systemic, systemic / clinical chemistry / cytochrome p450, nos / cytochrome p450, nos + systemic / in life observation / body weight / body weight …
[15] = system: mouse; details: Carcinogenicity, cd1, Oral, Feed, dose end: 18 month, group: systemic
[16] = system: dog; details: Chronic toxicity, beagle, Oral, Feed, dose end: 52 week, group: systemic
[17] = system: rat; details: Combined chronic toxicity/carcinogenicity, sprague dawley, Oral, Feed, dose end: 23 month, group: systemic
[18] = system: rat; details: Multigenerational reproductive toxicity study, other, Oral, Feed, dose end: 2 generation
[19] = system: dog; details: Subchronic oral toxicity in nonrodent, beagle, Feed, dose end: 90 day, group: systemic, systemic / hematology / erythrocyte (rbc) count differential / erythrocyte (rbc) + systemic / hematology / hematocrit (hct) / hematocrit (…
[20] = system: rat; details: Prenatal developmental toxicity study, sprague dawley, Oral, Gavage/Intubation, dose end: 16 GD
[21] = system: mouse; details: Subchronic oral toxicity in rodents, cd1, Feed, dose end: 90 day, group: systemic, systemic / organ weight / liver / absolute + systemic / organ weight / liver / relative to body weight + systemic / organ weight / liver / …
[22] = systemic / pathology microscopic / pancreas / hyperplasia + systemic / pathology microscopic / pancreas / inflammation + systemic / …
[23] = systemic / in life observation / body weight / body weight
[24] = systemic / pathology microscopic / pancreas / hyperplasia
[25] = group: developmental, systemic / in life observation / body weight / fetal weight
[26] = group: maternal, reproductive / reproductive performance / aborted / aborted + systemic / in life observation / body weight / body weight + systemic / in …
[27] = group: developmental, developmental / developmental malformation / bone / unossified + systemic / in life observation / body weight / fetal weight
[28] = group: maternal, systemic / in life observation / body weight / body weight + systemic / in life observation / body weight / body weight gain + systemic / …
[29] = systemic / in life observation / body weight / body weight + systemic / in life observation / body weight / body weight gain + systemic / …
[30] = systemic / in life observation / body weight / body weight + systemic / pathology microscopic / pancreas / atrophy
[31] = group: offspring, systemic / in life observation / body weight / offspring (pup) weight + systemic / in life observation / food consumption / food consumption…
[32] = group: parental, systemic / in life observation / body weight / body weight + systemic / organ weight / ovary / relative to body weight + systemic / organ …
[33] = group: parental, systemic / in life observation / water consumption / water consumption
[34] = group: reproductive, reproductive / offspring survival early / litter size / litter size + reproductive / reproductive performance / estrous cycle / length + …
[35] = systemic / in life observation / body weight / body weight + systemic / in life observation / body weight / body weight gain + systemic / in…
[36] = systemic / organ weight / liver / absolute + systemic / organ weight / liver / relative to body weight
[37] = systemic / pathology microscopic / liver / hyperplasia
[38] = systemic / pathology microscopic / liver / hyperplasia + systemic / pathology microscopic / bone marrow / [other]
[39] = systemic / clinical chemistry / albumin / albumin + systemic / clinical chemistry / albumin-globulin ratio / albumin-globulin ratio + …
[40] = systemic / hematology / leukocyte (wbc) count differential / leukocyte (wbc) + systemic / pathology microscopic / bone marrow / …
[41] = systemic / clinical chemistry / alkaline phosphatase (alp/alk) / alkaline phosphatase (alp/alk) + systemic / clinical chemistry / urea …
[42] = group: maternal, reproductive / reproductive performance / resorptions / resorptions + systemic / in life observation / body weight / body weight gain + …
[43] = systemic / pathology microscopic / liver / adenoma
[44] = systemic / pathology microscopic / liver / adenoma + systemic / hematology / platelet / platelet + systemic / in life observation / body …
[45] = systemic / in life observation / body weight / body weight gain + systemic / organ weight / thyroid gland / absolute + systemic / organ …
[46] = systemic / in life observation / clinical signs / salivation
[47] = systemic / hematology / erythrocyte (rbc) count differential / erythrocyte (rbc) + systemic / hematology / hematocrit (hct) / hematocrit (…
[48] = group: offspring, systemic / in life observation / body weight / offspring (pup) weight + systemic / in life observation / body weight / offspring (pup) …
[49] = group: parental, systemic / in life observation / body weight / body weight + systemic / in life observation / body weight / body weight gain + systemic / in…
[50] = group: developmental, developmental / developmental malformation / bone / delayed ossification + developmental / developmental malformation / bone / short
[51] = group: maternal, systemic / in life observation / clinical signs / salivation
[52] = group: maternal, systemic / in life observation / clinical signs / salivation + systemic / in life observation / body weight / body weight gain + systemic / …

## NC=O [Formamide]
[1]; systemic / in life observation / body weight / body weight gain + systemic / hematology / platelet / platelet
  LEL: 40 mg/kg/day
[1]; systemic / pathology microscopic / pancreas / hyperplasia + systemic / pathology microscopic / pancreas / inflammation + systemic / in life …
  LOAEL: 80 mg/kg/day
[1]; [22]
  NEL: 20 mg/kg/day
  NOAEL: 40 mg/kg/day
[2]; [23]
  LOAEL: 80 mg/kg/day
[2]; systemic / in life observation / body weight / body weight + systemic / pathology microscopic / liver / adenoma/carcinoma combined + …
  NOAEL: 40 mg/kg/day
[2]; [24]
  LEL: 20 mg/kg/day
  NEL: < 20 mg/kg/day
[3]; [25]
  LEL: 140 mg/kg/day
  LOAEL: > 140 mg/kg/day
  NEL: 70 mg/kg/day
  NOAEL: ≥ 140 mg/kg/day
[3]; [26]
  LEL: 140 mg/kg/day
  LOAEL: > 140 mg/kg/day
  NEL: 70 mg/kg/day
  NOAEL: ≥ 140 mg/kg/day
[4]; [27]
  LEL: 100 mg/kg/day
  LOAEL: > 200 mg/kg/day
  NEL: 50 mg/kg/day
  NOAEL: ≥ 200 mg/kg/day
[4]; [28]
  LEL: 200 mg/kg/day
  LOAEL: > 200 mg/kg/day
  NEL: 100 mg/kg/day
  NOAEL: ≥ 200 mg/kg/day
[5]; systemic / in life observation / body weight / body weight + systemic / hematology / [other] / [other] + systemic / hematology / erythrocyte…
  LEL: 40 mg/kg/day
[5]; systemic / in life observation / body weight / body weight + systemic / in life observation / body weight / body weight gain
  LOAEL: 80 mg/kg/day
[5]; [29]
  NEL: 20 mg/kg/day
  NOAEL: 40 mg/kg/day
[6]; [23]
  LEL: 40 mg/kg/day
  LOAEL: 80 mg/kg/day
[6]; [30]
  NEL: 20 mg/kg/day
  NOAEL: 40 mg/kg/day
[7]; [31]
  LOAEL: > 190 mg/kg/day
  NEL: 26 mg/kg/day
  NOAEL: ≥ 190 mg/kg/day
[7]; group: offspring, systemic / in life observation / food consumption / food consumption
  LEL: 87 mg/kg/day
[7]; [32]
  LOAEL: > 190 mg/kg/day
  NOAEL: ≥ 190 mg/kg/day
[7]; [33]
  LEL: 24 mg/kg/day
  NEL: < 24 mg/kg/day
[7]; [34]
  LEL: 190 mg/kg/day
  LOAEL: > 190 mg/kg/day
  NEL: 87 mg/kg/day
  NOAEL: ≥ 190 mg/kg/day

## N#CSCSC#N [Methylene bis(thiocyanate)]
[8]; [35]
  LOAEL: > 16 mg/kg/day
  NOAEL: ≥ 16 mg/kg/day
[8]; [36]
  LEL: 1 mg/kg/day
  NEL: < 1 mg/kg/day
[9]; [37]
  LOAEL: 0.4 mg/kg/day
  NOAEL: < 0.4 mg/kg/day
[9]; [38]
  LEL: 0.4 mg/kg/day
  NEL: < 0.4 mg/kg/day
[10]; [39]
  LOAEL: 2 mg/kg/day
  NOAEL: 0.5 mg/kg/day
[10]; [40]
  LEL: 0.5 mg/kg/day
  NEL: < 0.5 mg/kg/day
[11]; [41]
  LEL: 1 mg/kg/day
  NEL: < 1 mg/kg/day
[11]; systemic / in life observation / mortality / mortality
  LOAEL: 2 mg/kg/day
[11]; systemic / in life observation / mortality / mortality + systemic / clinical chemistry / alanine aminotransferase (alt/sgpt) / alanine …
  NOAEL: 1 mg/kg/day
[12]
  LEL: 3 mg/kg/day
  LOAEL: 3 mg/kg/day
  NEL: 1.2 mg/kg/day
  NOAEL: 1.2 mg/kg/day

## COc1cc(OC)nc(Sc2cccc(Cl)c2C(=O)[O-])n1.[Na+] [Pyrithiobac-sodium]
[13]; [25]
  LEL: 1000 mg/kg/day
  LOAEL: 1000 mg/kg/day
  NEL: 300 mg/kg/day
  NOAEL: 300 mg/kg/day
[13]; [42]
  LEL: 1000 mg/kg/day
  LOAEL: 1000 mg/kg/day
  NEL: 300 mg/kg/day
  NOAEL: 300 mg/kg/day
[14]
  LEL: 31.8 mg/kg/day
  LOAEL: 31.8 mg/kg/day
  NEL: 3.25 mg/kg/day
  NOAEL: 3.25 mg/kg/day
[15]; [43]
  LEL: 21.4 mg/kg/day
  LOAEL: 21.4 mg/kg/day
[15]; [44]
  NEL: 1.43 mg/kg/day
  NOAEL: 1.43 mg/kg/day
[16]; [45]
  LOAEL: 580 mg/kg/day
  NOAEL: 143 mg/kg/day
[16]; [46]
  LEL: 2.8 mg/kg/day
  NEL: < 2.8 mg/kg/day
[17]; systemic / clinical chemistry / sodium / sodium
  LEL: 1.36 mg/kg/day
[17]; systemic / clinical chemistry / sodium / sodium + systemic / pathology microscopic / kidney / adenoma + systemic / in life observation / …
  NEL: 0.274 mg/kg/day
[17]; [47]
  LOAEL: 200 mg/kg/day
  NOAEL: 58.7 mg/kg/day
[18]; group: offspring, systemic / in life observation / body weight / offspring (pup) weight
  LOAEL: 614 mg/kg/day
[18]; [48]
  LEL: 614 mg/kg/day
  NEL: 119 mg/kg/day
  NOAEL: 119 mg/kg/day
[18]; [49]
  LOAEL: 439 mg/kg/day
  NOAEL: 85.6 mg/kg/day
[18]; group: parental, systemic / in life observation / food consumption / food efficiency
  LEL: 119 mg/kg/day
[18]; group: parental, systemic / in life observation / food consumption / food efficiency + systemic / in life observation / body weight / body weight + systemic…
  NEL: 1.93 mg/kg/day
[19]
  LEL: 626 mg/kg/day
  LOAEL: 626 mg/kg/day
  NEL: 165 mg/kg/day
  NOAEL: 165 mg/kg/day
[20]; [50]
  LEL: 1800 mg/kg/day
  LOAEL: 1800 mg/kg/day
  NEL: 600 mg/kg/day
  NOAEL: 600 mg/kg/day
[20]; [51]
  LEL: 200 mg/kg/day
  LOAEL: 200 mg/kg/day
[20]; [52]
  NEL: 30 mg/kg/day
  NOAEL: 30 mg/kg/day
[21]
  LEL: 263 mg/kg/day
  LOAEL: 263 mg/kg/day
  NEL: 83.1 mg/kg/day
  NOAEL: 83.1 mg/kg/day
